Our source for the AC26 values is PubChem BioAssay AID624491 (Broad Institute, 2012).

Activity calls are given as the source filed them.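 How the source made its calls: active means fitted curve crossing a set activation limit at or below the highest valid dose tested; inconclusive means flat fit at 30 to 70% activation, or poor fit; inactive means the rest, including signal decreases.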

For this experiment, the system named is D54 ERlucT glycosylation luciferase reporter, luminescence, 24 h. The experiment in a line: blockers of NLG process in reporter cells – D54 ERlucT cells, luminescence, cherry-picks, dose response (AID 624491).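 Further: signal gain reflects blocked N-linked glycosylation of a luciferase reporter; actives raise luciferase signal so AC26 marks activators of the reporter.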

On to `NC(=O)CC(NC(=O)Cc1ccc(Br)cc1)c1ccc(NC2CCN(Cc3ccccc3)CC2)c([N+](=O)[O-])c1` (configuration not stated), for which the AC26 was 496 nM. For `COc1ccc(NC(=O)C2(C)Cc3c(-c4cccc(NC(C)=O)c4)ccnc3O2)cn1` (configuration not stated), the AC26 was 10100 nM. Under `COc1cc(C2c3cc4c(cc3OC(Nc3ccc(C(=O)O)cc3)C2C)OCO4)cc(OC)c1OC` (configuration not stated) stands 10700 nM. In the case of `COC(=O)c1[nH]c2cc(OC)c(OC)cc2c1/C=N/Nc1ccccc1`, the AC26 was 6360 nM. For the compound `O=C(Nc1cccc(F)c1)c1cc(S(=O)(=O)N2CCOCC2)ccc1N1CCCC1`, the AC26 is 947 nM. Regarding `O=C(Oc1ccccc1C(=O)Nc1ccccc1)c1ccccc1Br`, the AC26 was 1670 nM. `Cc1ccc(C(=O)Nc2ccc(NC(=O)c3cccs3)cc2)c(C)c1`: the AC26 is 8550 nM. To `COc1cccc(NC(=O)CCCOc2cc(=O)n(C)c3ccccc23)c1` belongs 4130 nM; to `COc1ccc(C(=O)CC(SCC(NC(C)=O)C(=O)O)c2ccc(Cl)cc2)cc1OC` (configuration not stated), 1440 nM. Take `C[C@@]12C(=O)Nc3cc(F)c(F)cc3C(=O)N1[C@H]1c3ccccc3OC[C@@H]1[C@@H]2c1ccccc1`: the AC26 was 784 nM. Take `Cc1cccc2c(N)c3c(nc12)N(C)CC3`: the AC26 was 7370 nM.

As to `COC(=O)c1sc(N)c(C(=O)OC)c1COC(=O)c1c(C)noc1C`, the AC26 was 2130 nM.

In the case of `COc1cc(C2Sc3ccccc3NC3=C2C(=O)OC3)cc(OC)c1OC` (configuration not stated), the AC26 is 12300 nM.

With `Cc1ccc2c(c1)cc(CN(C(=O)N1CCOCC1)C1CCCC1)c1nnnn12`, the AC26 was 4120 nM. Under `CCn1c(SCC(=O)N/N=C/c2ccc(C)s2)nc2ccccc21` stands 2200 nM. For `CC(Oc1ccc2c(c1)c1ccnc3c4ccccc4c(=O)n2c13)C(=O)NCCN1CCOCC1` (configuration not stated), the AC26 was 6140 nM. For `Cc1ccc(Nc2nc(-c3sc(C)nc3C)cs2)cc1`, the AC26 is 481 nM. Under `COc1cc2c(cc1OC)C(c1cccs1)N(C(=O)c1cccnc1)CC2` (configuration not stated) stands 806 nM; under `Cn1ncc2c(O/N=C(\N)c3ccc(C(F)(F)F)cc3)ncnc21`, 445 nM; under `N#Cc1ccc(-c2cccs2)nc1SCc1cccnc1`, 242 nM.

Regarding `CCCn1c(CN2CCN(C(=O)OCC)CC2)nc2cc(NC(=O)CC)ccc21`, the AC26 is 9150 nM. Under `COc1ccc(C=CC(=O)c2ccc(OC)c(OC)c2O)cc1OC` stands 4390 nM. `Cc1cccc(/C=N\Nc2cn[nH]c(=O)c2Cl)c1`: the AC26 is 4560 nM. `CCNc1ccc(Br)cc(C(=O)/C=C/c2ccc(Cl)cc2)c1=O`: the AC26 was 6710 nM. In the case of `COC(=O)C1=C(c2cc3ccccc3o2)C[C@@H]2CC[C@H]1N2C(=O)N1CCOCC1`, the AC26 was > 19500 nM (inactive). As for `CN1C(=O)C(=Cc2sc(=O)n(-c3ccccc3)c2N(C)C)C(=O)N(C)C1=O`, the AC26 is 5320 nM. Under `COc1cc(/C=N/NC(=O)c2cc(-c3cccn3C)n[nH]2)cc(OC)c1OC` stands 1730 nM; under `c1ccc(-c2nc(-n3ccnc3)nc(-n3ccnc3)n2)cc1`, 2780 nM. Consider `Cc1cc(NCCN2CCOCC2)c2ccc3ccccc3c2n1`, for which the AC26 is 3590 nM. Under `C[C@@H](NC(=O)c1nc[nH]c1C(=O)N1CCN(c2ccccc2)CC1)c1ccccc1` stands 2110 nM; under `COc1ccc(CCn2c(=N)c(C(=O)NCc3ccco3)cc3c(=O)n4ccccc4nc32)cc1`, 2810 nM. As to `COc1cccc(-c2nc(N3CCN(C)CC3)c3ccccc3n2)c1O`, the AC26 was 3610 nM. For the compound `COc1cccc(Sc2ccccc2/C=N/NC(N)=O)c1`, the AC26 was 8340 nM. With `COc1cc(Nc2c3c(nc4ccccc24)CCCC3)cc(OC)c1OC`, the AC26 was 581 nM. To `O=C(/C=C/Sc1ccc(C(F)(F)F)cn1)c1ccccc1` belongs 3910 nM; to `O=C(c1cccc(Oc2ccccc2)c1)N1CCN(c2ccccn2)CC1`, 2190 nM; to `O=C(Nc1ccccc1N1CCOCC1)c1ccc2nc[nH]c2c1`, 1130 nM. Under `CC[C@H](C)C(=O)O[C@H]1CCC=C2C=C[C@H](C)[C@H](CC[C@@H]3C[C@@H](O)CC(=O)O3)[C@H]21` stands 180 nM; under `COc1ccc(C(=O)/C=C/c2ccc(OC(=O)c3cc(OC)c(OC)c(OC)c3)cc2)cc1`, 3740 nM; under `Cc1ccc(S(=O)(=O)NC2=C(N3CCN(Cc4ccccc4)CC3)C(=O)c3ccccc3C2=O)cc1`, 3810 nM. As to `COc1ccc(CNC(=O)c2cccc3c(-c4cnn(C)c4)coc23)cc1OC`, the AC26 was 3960 nM. Under `COc1ccc(CCCC(=O)NCc2ccccc2)cc1C` stands 6540 nM; under `COc1cc2c(cc1OC)C(c1cc(Br)ccc1F)N(C(=O)CCl)CC2` (configuration not stated), 2280 nM.

Consider `O=C(Nc1cccc(-n2cnnn2)c1)c1cc(Cl)ccc1Cl`, for which the AC26 is 4570 nM. `Cc1ccc(S(=O)(=O)N(C)C[C@@H]2Oc3ccc(NC(=O)CCC(F)(F)F)cc3CC(=O)N([C@@H](C)CO)C[C@@H]2C)cc1`: the AC26 is 1470 nM. `Oc1cccc(Nc2c3ccccc3nc3ccccc23)c1`: the AC26 is 1440 nM. To `COc1cc(/C=C2\SC(=S)N(CCC(=O)N3CCCCC3)C2=O)cc(OC)c1OC` belongs 6840 nM.

With `CN(C)CCCN1C(=O)c2cccc3c(Br)ccc(c23)C1=O`, the AC26 is 871 nM.

Consider `CCCC(=O)Nc1nc2ccc(NC(=O)c3c(F)c(F)c(OC)c(F)c3F)cc2s1`, for which the AC26 was 974 nM. As to `C[C@H]1CN([C@@H](C)CO)C(=O)Cc2cc(NC(=O)CCC(F)(F)F)ccc2O[C@H]1CN(C)S(=O)(=O)c1ccc(Cl)cc1`, the AC26 was 2260 nM. To `CCOc1ccc2[nH]c(C(=O)N/N=C/c3cc(OC)c(OC)c(OC)c3)cc2c1` belongs 1320 nM. Under `Cc1ccc(C(=O)N/C(=C\c2ccco2)C(=O)NCCc2c[nH]c3ccccc23)cc1` stands 2310 nM; under `CCn1ncc(C2=NOC(C(=O)NCc3ccccc3)C2)c1C` (configuration not stated), 413 nM. As to `Cc1ccc(C)n1-c1cccc(NC(=O)c2ccccc2)c1`, the AC26 was 8830 nM.

Consider `O=C(C[C@H]1C/C=C\C[C@H](Cc2ccc(F)cc2)C(=O)O[C@@H](c2ccccc2)CNC1=O)N[C@@H](CO)Cc1ccccc1`, for which the AC26 was 892 nM. For the compound `O=C(CCN1C(=O)/C(=C/c2cccs2)SC1=S)N1CCCCC1`, the AC26 is 1220 nM. Under `Fc1ccc(CSc2ccc3nnc(-c4cccnc4)n3n2)cc1` stands 403 nM. Regarding `CCOC(=O)c1[nH]c(C)c(C(=O)Nc2ccc(C)cc2C)c1C`, the AC26 was 494 nM. In the case of `O=C(N/N=C/c1ccccn1)c1cc(-c2ccncc2)nc2ccccc12`, the AC26 is 499 nM.

On to `Cc1c(-c2nc(N)nc(Nc3ccccc3)n2)oc2ccccc12`, for which the AC26 was 3890 nM. To `COc1cc(C#Cc2ccc3cc(CCCO)oc(=O)c3c2)cc(OC)c1` belongs 161 nM. In the case of `Cc1ccc(CCC(=O)Nc2ncc(Cc3cc(Cl)ccc3Cl)s2)o1`, the AC26 was 476 nM. Take `COc1ccc(/C=N/NC(=O)c2c(C)nc3ccc(Br)cn23)cc1OC`: the AC26 is 2520 nM. To `O=C(COC(=O)c1ccc(NS(=O)(=O)c2cccs2)cc1O)NCc1ccccc1` belongs 4820 nM; to `COc1cccc(N2CCN(C(=O)c3ccc(CS(=O)c4ccc(C)cc4)o3)CC2)c1` (configuration not stated), 110 nM; to `COc1ccc(NC(=O)C2Cc3c(-c4cccc(NC(C)=O)c4)ccnc3O2)cn1` (configuration not stated), 2590 nM. To `Cc1ccc(Cl)cc1N1CCN(S(=O)(=O)c2ccc(-c3ccc(=O)[nH]n3)o2)CC1` belongs 5210 nM.
